# Experimental data reported in patent US20030088888A1, “Method of plant transformation” (priority 2001, published 2003).
# Test system: gypsophila stem explants
# Experiment: Transient transformation (GUS expression) of stem explants from GA3-pretreated plants after cocultivation with Agrobacterium tumefaciens EHA105/pKIWI105
# Type: in vivo, Gypsophila paniculata L.
# Experimental: Unrooted cuttings of gypsophila (Gypsophila paniculata L.) cultivars Arbel, Pestival, Flamingo, Yokinko, New Hope and P2000 were obtained from Danziger “DAN” Flower Farm (Moshav Mishmar Hashiva, Israel). Stem cuttings with six or eight filly mature leaves (not counting the apical leaves which were not fully expanded), harvested from greenhouse-grown plants and stored for up to 2 weeks at 4° C., were used to prepare stem explants (Zuker A, Ahroni A, Shejtman H and Vainstein A (1997). Adventitious shoot regeneration from leaf explants of Gypsophila paniculata L. Plant Cell Reports, 16: 775-778; Ahroni A, Zuker A, Rozen Y, Shejtman H and Vainstein A (1997). An efficient method for adventitious shoot regeneration from stem-segment explants of gwpsophila. Plant Cell Tiss Org Cult 49: 101-106). Twenty days prior to harvesting of cuttings (unless otherwise i5 indicated), mother plants were sprayed once with approximately 4 ml. of 1 mM GA3.
# Cuttings were rinsed with 70% ethanol, then sterilized for 10 min in 1.5% (w/v) sodium hypochlorite and rinsed three times for 10 min each in sterile water. The leaves and shoot apices of the cutting were discarded and the three primary nodes were immersed for 10 min in a bacterial (A. tumefaciens EHA105/pKIWI105) suspension (OD550=1). Inoculated stem explants were then blotted dry and cultured in an upright position on the cocultivation medium for a period of up to 5 days. Following cocultivation, stem explants were histochemically evaluated for transient GUS expression by counting the number of GUS-expressing stem explants, as well as the number of blue spots per explant under a stereo-microscope.
# A histochemical assay of GUS activity was performed according to Stomp (1992). Tissue samples were incubated for a few hours to overnight at 37° C. in a 0.1% (w/v) X-Gluc (5-bromo-4-chloro-3-indolyl β-D-glucuronic acid sodium salt, Biosynth Inc., Staad, Switzerland) solution containing 0.1 M sodium phosphate buffer (pH 7.0), 10 mM EDTA, and 0.1% (w/v) Triton X-100. When necessary, green tissues were bleached, after staining, by immersion in 50% (v/v) EtOH for a few hours, followed by several washes with 70% EtOH. It should be noted that no background GUS activity was detectable in any of the analyzed tissues of control plants.
smiles,measurement,setting,value
C=C1C[C@]23C[C@@]1(O)CC[C@H]2[C@@]12C=C[C@H](O)[C@@](C)(C(=O)O1)[C@H]2[C@@H]3C(=O)O [GA3],increase in frequency of transient transformation events (number of blue spots per explant),"cv. Arbel, explants from 20 day versus 10 day GA3 treated plants",ca. 3 times
same,percentage of GUS-expressing stem explants out of total number of explants inoculated,"cv. Arbel, explants from plants 20 days after GA3 treatment (1 mM spray), 5-day cocultivation with EHA105/pKIWI105",90%
same,percentage of inoculated explants expressing GUS,"cvs. Pestival and Flamingo, GA3-treated plants, cocultivation with EHA105/pKIWI105, dark then light, 5 days",ca. 75%
same,transient transformation (qualitative),"explants from cuttings of plants treated with GA3, versus no transient transformation without GA3",efficient and highly reproducible transient transformation was obtained
